Laboratory results as given in US7288537B2, “Azetidine derivatives as CCR-3 receptor antagonists” (Novartis AG, priority 2002, dated 2007).

Key:
[1] = biological target: T1, human CCR-3 (Homo sapiens, UniProt P51677); experiment: CCR-3 binding assay (SPA, [125I]-human eotaxin); settings: membranes of RBL-2H3 cells stably expressing CCR3, 4 hours at room temperature, read-out: IC50, inhibition of binding of human eotaxin to human CCR-3
T1 construct: expressed in transfected cells; membranes
T1 sequence (P51677 1-355): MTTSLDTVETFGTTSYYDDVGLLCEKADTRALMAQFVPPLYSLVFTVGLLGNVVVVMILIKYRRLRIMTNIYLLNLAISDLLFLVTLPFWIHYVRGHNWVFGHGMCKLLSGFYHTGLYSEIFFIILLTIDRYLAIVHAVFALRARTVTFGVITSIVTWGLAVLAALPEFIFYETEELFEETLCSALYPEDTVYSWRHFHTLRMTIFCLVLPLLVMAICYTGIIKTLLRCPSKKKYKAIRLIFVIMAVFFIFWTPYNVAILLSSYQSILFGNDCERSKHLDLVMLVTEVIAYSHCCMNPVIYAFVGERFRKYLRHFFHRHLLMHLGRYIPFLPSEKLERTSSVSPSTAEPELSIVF
Protocol: In this assay the effect of agents of the invention on the binding of human eotaxin to human CCR-3 is determined. Recombinant cells expressing human CCR-3 are captured by wheatgerm agglutinin (WGA) polyvinyltoluidene (PVT) SPA beads (available from Amersham), through a specific interaction between the WGA and carbohydrate residues of glycoproteins on the surface of the cells. [^125I]-human eotaxin (available from Amersham) binds specifically to CCR-3 receptors bringing the [^125I]-human eotaxin in close proximity to the SPA beads. Emitted â-particles from the [^125I]-human eotaxin excite, by its proximity, the fluorophore in the beads and produce light.
Preparation of Assay Buffer: 5.96 g HEPES and 7.0 g sodium chloride are dissolved in distilled water and 1M aqueous CaCl2 (1 ml) and 1M aqueous MgCl2 (5 ml) are added. The pH is adjusted to 7.6 with NaOH and the solution made to a final volume of 1 L using distilled water. 5 g bovine serum albumin and 0.1 g sodium azide are then dissolved in the solution and the resulting buffer stored at 4° C. A Complete™ protease inhibitor cocktail tablet (available from Boehringer) is added per 50 ml of the buffer on the day of use.
Preparation of Homogenisation Buffer: Tris-base (2.42 g) is dissolved in distilled water, the pH of the solution is adjusted to 7.6 with hydrochloric acid and the solution is diluted with distilled water to a final volume of 1 l. The resulting buffer is stored at 4° C. A Complete™ protease inhibitor cocktail tablet is added per 50 ml of the buffer on the day of use.
Preparation of membranes: Confluent rat basophil leukemia (RBL-2H3) cells stably expressing CCR3 are removed from tissue culture flasks using enzyme-free cell dissociation buffer and resuspended in phosphate-buffered saline. The cells are centrifuged (800 g, 5 minutes), the pellet resuspended in ice-cold homogenisation buffer using 1 ml homogenisation buffer per gram of cells and incubated on ice for 30 minutes. The cells are homogenised on ice with 10 strokes in a glass mortar and pestle. The homogenate is centrifuged (800 g, 5 minutes, 4° C.), the supernatant further centrifuged (48,000 g, 30 minutes, 4° C.) and the pellet redissolved in Homogenisation Buffer containing 10% (v/v) glycerol. The protein content of the membrane preparation is estimated by the method of Bradford (Anal. Biochem. (1976) 72:248) and aliquots are snap frozen and stored at −80° C.
The assay is performed in a final volume of 250 μl per well of an Optiplate™ microplate (ex Canberra Packard). To selected wells of the Optiplate™ are added 50 μl of solutions of a test compound in Assay Buffer containing 5% DMSO (concentrations from 0.01 nM to 10 μM). To determine total binding, 50 μl of the Assay Buffer containing 5% DMSO is added to other selected wells. To determine non-specific binding, 50 μl of 100 nM human eotaxin (ex R&D Systems) in Assay Buffer containing 5% DMSO is added to further selected wells. To all wells are added 50 μl [^125I]-Human eotaxin (ex Amersham) in Assay Buffer containing 5% DMSO at a concentration of […] (to give a final concentration of […]), 50 μl of WGA-PVT SPA beads in Assay Buffer (to give a final concentration of 1.0 mg beads per well) and 100 μl of the membrane preparation at a concentration of 100 μg protein in Assay Buffer (to give a final concentration of 10 μg protein per well). The plate is then incubated for 4 hours at room temperature. The plate is sealed using TopSeal-S™ sealing tape (ex Canberra Packard) according to the manufacturers instructions. The resulting scintillations are counted using a Canberra Packard TopCount™ scintillation counter, each well being counted for 1 minute. The concentration of test compound at which 50% inhibition occurs (IC50) is determined from concentration-inhibition curves in a conventional manner.

[2] = biological target: alpha-1 adrenergic receptor; experiment: alpha-1 adrenergic receptor radioligand binding assay ([125I]-HEAT, cerebral cortex membranes); settings: rat cerebral cortex membranes; radioligand used at 40 pM
Protocol: Cerebral cortices from male Sprague-Dawley rats (175-200 g) are dissected and homogenised in 10 volumes of ice cold 0.32 M sucrose (containing 1 mM MgCl2 dihydrate and 1 mM K2HPO4) with a glass/teflon homogeniser. The membranes are centrifuged at 1000×g for 15 miN, the pellet discarded and the centrifugation repeated. The supernatants are pooled and centrifuged at 18,000×g for 15 minutes. The pellet is osmotically shocked in 10 volumes of water and kept on ice for 30 minutes. The suspension is centrifuged at 39,000×g for 20 minutes, resuspended in Krebs-Henseleit buffer pH 7.4 (1.17 mM MgSO4 anhydrous, 4.69 mM KCl, 0.7 mM K2HPO4 anhydrous, 0.11 M NaCl, 11 mM D-glucose and 25 mM NaHCO3) containing 20 mM Tris, and kept for 2 days at −20° C. The membranes are then thawed at 20-23° C., washed three times with Krebs-Henseleit buffer by centrifugation at 18,000×g for 15 minutes, left overnight at 4° C. and washed again three times. The final pellet is resuspended with a glass/teflon homogeniser in 125 ml/100 membranes in the same buffer. […]
The resulting membranes are subjected to a radioligand binding assay. […] Following drying of the plates for 3 h. at 50° C., 40 μl of Microscint 20 is added to each well, the plates incubated at room temperature for a further 20 minutes and the retained radioactivity quantified in a Packard TopCount NXT™ scintillation counter. […]

[3] = biological target: histamine H1 (Homo sapiens, UniProt P35367); experiment: histamine H1 antagonism
Chain of histamine H1 (P35367 whole entry): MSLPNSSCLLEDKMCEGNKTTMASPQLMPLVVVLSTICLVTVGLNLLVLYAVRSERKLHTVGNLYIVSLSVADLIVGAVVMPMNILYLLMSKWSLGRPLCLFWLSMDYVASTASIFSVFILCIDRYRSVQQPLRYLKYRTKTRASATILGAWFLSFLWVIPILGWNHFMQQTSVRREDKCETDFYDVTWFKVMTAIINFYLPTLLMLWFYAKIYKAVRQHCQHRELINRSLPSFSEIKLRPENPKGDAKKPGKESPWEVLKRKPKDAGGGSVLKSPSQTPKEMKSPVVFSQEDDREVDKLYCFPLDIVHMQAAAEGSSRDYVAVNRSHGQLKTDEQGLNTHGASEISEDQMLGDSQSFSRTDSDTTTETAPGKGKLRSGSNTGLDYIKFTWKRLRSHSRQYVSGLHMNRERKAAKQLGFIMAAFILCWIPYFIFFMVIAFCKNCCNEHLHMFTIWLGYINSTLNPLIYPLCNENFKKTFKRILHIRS

| IC50 [1] | Kd [2] | histamine H1 antagonist activity [3] | SMILES |
| --- | --- | --- | --- |
| – | 0.0589 ± 0.0187 nM | – | O=C1c2ccccc2CCC1CNCCc1ccc(O)c(I)c1 (centres unmarked) [[^125I]-HEAT] |
| 11 nM | – | histamine H1 antagonists | CCc1nnc(NC(=O)NCCCN2CC(Cc3ccc(Cl)cc3)C2)s1 [Example 190, 1-{3-[3-(4-chloro-benzyl)-azetidin-1-yl]-propyl}-3-(5-ethyl-[1,3,4]thiadiazol-2-yl)-urea] |

Second part, the compound before the results:

| SMILES | IC50 [1] | Kd [2] | histamine H1 antagonist activity [3] |
| --- | --- | --- | --- |
| CCc1nnc(NC(=O)N[C@H](CO)CCN2CC(Oc3ccc(Cl)cc3)C2)s1 [Example 99, 1-{(S)-3-[3-(4-Chloro-phenoxy)-azetidin-1-yl]-1-hydroxymethyl-propyl}-3-(5-ethyl-[1,3,4]thiadiazol-2-yl)-urea] | 7 nM | – | – |
| COc1cc(NC(=O)N[C@@H](CCN2CC(Oc3ccc(Cl)cc3)C2)COC(C)=O)cc(OC)c1 [Example 122, Acetic acid (S)-4-[3-(4-chloro-phenoxy)-azetidin-1-yl]-2-[3-(3,5-dimethoxy-phenyl)-ureido]-butyl ester] | 22 nM | – | – |
| COc1cc(NC(=O)N[C@H](CO)CCN2CC(Oc3ccc(Cl)cc3)C2)cc(OC)c1 [Example 26, 1-{(S)-3-[3-(4-Chloro-phenoxy)-azetidin-1-yl]-1-hydroxymethyl-propyl}-3-(3,5-dimethoxy-phenyl)-urea] | 7 nM | – | – |
| Cn1nc(C2CC2)cc1NC(=O)N[C@H](CO)CCN1CC(Oc2ccc(Cl)cc2)C1 [Example 83, 1-{(S)-3-[3-(4-Chloro-phenoxy)-azetidin-1-yl]-1-hydroxymethyl-propyl}-3-(5-cyclopropyl-2-methyl-2H-pyrazol-3-yl)-urea] | 5 nM | – | – |
| CCc1cc(NC(=O)N[C@H](CO)CCN2CC(Oc3ccc(Cl)cc3)C2)n(C)n1 [Example 88, 1-{(S)-3-[3-(4-Chloro-phenoxy)-azetidin-1-yl]-1-hydroxymethyl-propyl}-3-(5-ethyl-2-methyl-2H-pyrazol-3-yl)-urea] | 6 nM | – | – |
